This is an account of results in patent publication US11230540B2, “Substituted triazole derivatives and uses thereof” (Bayer Pharma Aktiengesellschaft, priority 2017, dated 2022).

Counter-ions that a name gives are not always drawn.

The target in one assay is T1, human V1a receptor (Homo sapiens, UniProt P37288).
T1 construct: expressed in transfected cells; host or cells: CHO K1 (Chinese hamster ovary), also stably transfected with a modified aequorin
As to the kind of experiment: Cellular in vitro assay for vasopressin receptor activity, V1a receptor cell line (aequorin luminescence). Type of assay: cell-based. The following applies: for IC50: CHO cell line transfected with human V1a receptor, [Arg8]-vasopressin at EC50 concentration, read-out: IC50 hV1a; for ratio IC50 hV2/hV1a: selectivity ratio of the IC50 values hV2/hV1a. Summed up:
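Recombinant CHO K1 cells stably expressing human V1a receptor and aequorin, loaded with coelenterazine, were exposed to test compounds for 10 minutes before [Arg^8]-vasopressin at EC50 concentration. Calcium-triggered luminescence was measured immediately, giving IC50 values.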

The target in a further assay is T2, human V2 receptor (Homo sapiens, UniProt P30518).
T2 construct: expressed in transfected cells; host or cells: CHO K1 (Chinese hamster ovary) expressing firefly luciferase under a CRE-responsive promoter
T2 sequence (P30518 whole entry): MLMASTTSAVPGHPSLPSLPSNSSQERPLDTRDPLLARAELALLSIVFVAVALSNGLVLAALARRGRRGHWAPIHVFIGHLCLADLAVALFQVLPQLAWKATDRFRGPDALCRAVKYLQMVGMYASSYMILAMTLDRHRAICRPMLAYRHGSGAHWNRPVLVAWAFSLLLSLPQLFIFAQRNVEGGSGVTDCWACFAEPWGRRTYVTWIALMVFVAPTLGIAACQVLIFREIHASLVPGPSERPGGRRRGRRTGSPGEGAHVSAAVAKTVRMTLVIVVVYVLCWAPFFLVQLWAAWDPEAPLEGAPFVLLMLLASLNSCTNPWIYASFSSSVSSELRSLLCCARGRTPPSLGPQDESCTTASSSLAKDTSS
As to the kind of experiment: Cellular in vitro assay for vasopressin receptor activity, V2 receptor cell line (CRE-luciferase). It is filed as cell-based. The conditions noted are these: CHO cell line transfected with human V2 receptor; [Arg8]-vasopressin at EC50 concentration; read-out: IC50 hV2. The essentials:
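CHO K1 cells stably expressing human V2 receptor with CRE-driven firefly luciferase, plated the day before. Test compounds at various concentrations added together with [Arg^8]-vasopressin at EC50 concentration, 3 h at 37° C, 5% CO2. Luminescence read after Triton lysis and luciferin addition; IC50 values reported.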

T1 sequence (P37288 whole entry): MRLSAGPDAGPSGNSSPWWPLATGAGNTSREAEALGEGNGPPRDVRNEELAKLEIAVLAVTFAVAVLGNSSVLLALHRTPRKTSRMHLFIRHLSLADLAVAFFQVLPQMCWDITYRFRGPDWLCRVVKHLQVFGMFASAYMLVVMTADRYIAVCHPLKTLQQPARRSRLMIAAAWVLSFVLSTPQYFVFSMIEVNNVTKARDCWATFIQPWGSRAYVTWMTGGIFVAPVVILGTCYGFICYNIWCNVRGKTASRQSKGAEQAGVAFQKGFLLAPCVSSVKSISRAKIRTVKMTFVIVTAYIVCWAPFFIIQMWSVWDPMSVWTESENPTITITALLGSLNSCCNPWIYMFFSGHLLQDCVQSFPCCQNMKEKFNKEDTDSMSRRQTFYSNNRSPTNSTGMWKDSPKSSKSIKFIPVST

Consider `CNC(=O)c1nc(Cn2nc(-c3ccc(Cl)cc3)n(C[C@H](O)C(F)(F)F)c2=O)nn1-c1ccccc1OC` [Example 42, 3-({3-(4-Chlorophenyl)-5-oxo-4-[(2S)-3,3,3-trifluoro-2-hydroxypropyl]-4,5-dihydro-1H-1,2,4-triazol-1-yl}methyl)-1-(2-methoxyphenyl)-N-methyl-1H-1,2,4-triazole-5-carboxamide], for which, at human V1a receptor, the IC50 (in general, the concentration at which inhibition is half-maximal) amounted to 1.12 nM and the “ratio IC50 hV2/hV1a” value came to 7.4. The IC50 at human V2 receptor came out at 8.29 nM.

For the compound `CNC(=O)c1nc(Cn2nc(-c3ccc(Cl)cc3)n(C[C@H](O)C(F)(F)F)c2=O)nn1-c1ccccc1Cl` [Example 43, 1-(2-Chlorophenyl)-3-({3-(4-chlorophenyl)-5-oxo-4-[(2S)-3,3,3-trifluoro-2-hydroxypropyl]-4,5-dihydro-1H-1,2,4-triazol-1-yl}methyl)-N-methyl-1H-1,2,4-triazole-5-carboxamide], on human V1a receptor, the half-maximal inhibitory concentration (IC50) is 2.07 nM and the “ratio IC50 hV2/hV1a” value is reported as 8.1. Besides, the concentration for half-maximal inhibition (IC50) at human V2 receptor turned out to be 16.7 nM.

With `CON(C)C(=O)c1nc(Cn2nc(-c3ccc(Cl)cc3)n(C[C@H](O)C(F)(F)F)c2=O)nn1-c1ccccc1Cl` [Example 44, 1-(2-Chlorophenyl)-3-({3-(4-chlorophenyl)-5-oxo-4-[(2S)-3,3,3-trifluoro-2-hydroxypropyl]-4,5-dihydro-1H-1,2,4-triazol-1-yl}methyl)-N-methoxy-N-methyl-1H-1,2,4-triazole-5-carboxamide], the 50% inhibitory concentration (IC50) on human V1a receptor turned out to be 1.21 nM; on human V2 receptor, 8.63 nM. For the same compound, the “ratio IC50 hV2/hV1a” value on human V1a receptor was 7.2.

With `CON(C)C(=O)c1nc(Cn2nc(-c3ccc(Cl)cc3)n(C[C@H](O)C(F)(F)F)c2=O)nn1-c1cccc(Cl)c1` [Example 45, 1-(3-Chlorophenyl)-3-({3-(4-chlorophenyl)-5-oxo-4-[(2S)-3,3,3-trifluoro-2-hydroxypropyl]-4,5-dihydro-1H-1,2,4-triazol-1-yl}methyl)-N-methoxy-N-methyl-1H-1,2,4-triazole-5-carboxamide], on human V1a receptor, the concentration for half-maximal inhibition (IC50) amounted to 0.64 nM and the “ratio IC50 hV2/hV1a” value is reported as 5.7. Besides, the IC50 on human V2 receptor was 3.66 nM.

In the case of `CC(C)(N)CNC(=O)c1nc(Cn2nc(-c3ccc(Cl)cc3)n(C[C@H](O)C(F)(F)F)c2=O)nn1-c1ncccc1C(F)(F)F` [Example 46, N-(2-Amino-2-methylpropyl)-3-({3-(4-chlorophenyl)-5-oxo-4-[(2S)-3,3,3-trifluoro-2-hydroxypropyl]-4,5-dihydro-1H-1,2,4-triazol-1-yl}methyl)-1-[3-(trifluoromethyl)pyridin-2-yl]-1H1,2,4-triazole-5-carboxamide], on human V1a receptor, the half-maximal inhibitory concentration (IC50) was 288 nM and the “ratio IC50 hV2/hV1a” value was 5.1. Also, the IC50 at human V2 receptor was determined as 1470 nM.

Consider `O=C(NCC(F)(F)F)c1nc(Cn2nc(-c3ccc(Cl)cc3)n(C[C@H](O)C(F)(F)F)c2=O)nn1-c1ncccc1C(F)(F)F` [Example 47, 3-({3-(4-Chlorophenyl)-5-oxo-4-[(2S)-3,3,3-trifluoro-2-hydroxypropyl]-4,5-dihydro-1H-1,2,4-triazol-1-yl}methyl)-N-(2,2,2-trifluoroethyl)-1-[3-(trifluoromethyl)pyridin-2-yl]-1H-1,2,4-triazole-5-carboxamide], for which the IC50 is 0.92 nM on human V1a receptor and 38.5 nM on human V2 receptor. Moreover, the “ratio IC50 hV2/hV1a” value at human V1a receptor is recorded as 41.8.

With `CC(C)(C)NC(=O)c1nc(Cn2nc(-c3ccc(Cl)cc3)n(C[C@H](O)C(F)(F)F)c2=O)nn1-c1ncccc1C(F)(F)F` [Example 48, N-Tert-butyl-3-({3-(4-chlorophenyl)-5-oxo-4-[(2S)-3,3,3-trifluoro-2-hydroxypropyl]-4,5-dihydro-1H-1,2,4-triazol-1-yl}methyl)-1-[3-(trifluoromethyl)pyridin-2-yl]-1H-1,2,4-triazole-5-carboxamide], at human V1a receptor, the IC50 turned out to be 1.31 nM and the “ratio IC50 hV2/hV1a” value came out at 31.3. For the same compound, the 50% inhibitory concentration (IC50) at human V2 receptor came to 41 nM.

For the compound `CC1(C)CN(C(=O)c2nc(Cn3nc(-c4ccc(Cl)cc4)n(C[C@H](O)C(F)(F)F)c3=O)nn2-c2ncccc2C(F)(F)F)CCN1` [Example 49, 5-(4-Chlorophenyl)-2-({5-(3,3-dimethylpiperazine-1-carbonyl)-1-[3-(trifluoromethyl)pyridin-2-yl]-1H-1,2,4-triazol-3-yl}methyl)-4-[(2S)-3,3,3-trifluoro-2-hydroxypropyl]-2,4-dihydro-3H-1,2,4-triazol-3-one hydrochloride], on human V1a receptor, the concentration for half-maximal inhibition (IC50) was 2.5 nM and the “ratio IC50 hV2/hV1a” value is 191.0. In addition, at human V2 receptor, the IC50 turned out to be 478 nM.

Regarding `CC(C)(C)CNC(=O)c1nc(Cn2nc(-c3ccc(Cl)cc3)n(C[C@H](O)C(F)(F)F)c2=O)nn1-c1ncccc1C(F)(F)F` [Example 50, 3-({3-(4-Chlorophenyl)-5-oxo-4-[(2S)-3,3,3-trifluoro-2-hydroxypropyl]-4,5-dihydro-1H-1,2,4-triazol-1-yl}methyl)-N-(2,2-dimethylpropyl)-1-[3-(trifluoromethyl)pyridin-2-yl]-1H-1,2,4-triazole-5-carboxamide], on human V1a receptor, the IC50 is 0.7 nM and the “ratio IC50 hV2/hV1a” value turned out to be 100.0. The half-maximal inhibitory concentration (IC50) on human V2 receptor is 70 nM.

For the compound `CC(C)(O)CNC(=O)c1nc(Cn2nc(-c3ccc(Cl)cc3)n(C[C@H](O)C(F)(F)F)c2=O)nn1-c1ncccc1C(F)(F)F` [Example 52, 3-({3-(4-Chlorophenyl)-5-oxo-4-[(2S)-3,3,3-trifluoro-2-hydroxypropyl]-4,5-dihydro-1H-1,2,4-triazol-1-yl}methyl)-N-(2-hydroxy-2-methylpropyl)-1-[3-(trifluoromethyl)pyridin-2-yl]-1H-1,2,4-triazole-5-carboxamide], on human V1a receptor, the IC50 worked out at 0.47 nM and the “ratio IC50 hV2/hV1a” value is given as 82.8. Further, the half-maximal inhibitory concentration (IC50) on human V2 receptor was 38.5 nM.

On to `CC1(CNC(=O)c2nc(Cn3nc(-c4ccc(Cl)cc4)n(C[C@H](O)C(F)(F)F)c3=O)nn2-c2ncccc2C(F)(F)F)COC1` [Example 53, 3-({3-(4-Chlorophenyl)-5-oxo-4-[(2S)-3,3,3-trifluoro-2-hydroxypropyl]-4,5-dihydro-1H-1,2,4-triazol-1-yl}methyl)-N-[(3-methyloxetan-3-yl)methyl]-1-[3-(trifluoromethyl)pyridin-2-yl]-1H1,2,4-triazole-5-carboxamide], for which, on human V1a receptor, the 50% inhibitory concentration (IC50) came to 0.64 nM and the “ratio IC50 hV2/hV1a” value was determined as 98.4. Moreover, the IC50 on human V2 receptor was 63 nM.

Take `O=C(NCCC(F)(F)F)c1nc(Cn2nc(-c3ccc(Cl)cc3)n(C[C@H](O)C(F)(F)F)c2=O)nn1-c1ncccc1C(F)(F)F` [Example 54, 3-({3-(4-Chlorophenyl)-5-oxo-4-[(2S)-3,3,3-trifluoro-2-hydroxypropyl]-4,5-dihydro-1H-1,2,4-triazol-1-yl}methyl)-1-[3-(trifluoromethyl)pyridin-2-yl]-N-(3,3,3-trifluoropropyl)-1H-1,2,4-triazole-5-carboxamide]: the IC50 stood at 0.78 nM at human V1a receptor and 83.5 nM at human V2 receptor. Further, the “ratio IC50 hV2/hV1a” value on human V1a receptor is recorded as 107.1.

Turning to `O=C(NCC1(O)CC1)c1nc(Cn2nc(-c3ccc(Cl)cc3)n(C[C@H](O)C(F)(F)F)c2=O)nn1-c1ncccc1C(F)(F)F` [Example 55, 3-({3-(4-Chlorophenyl)-5-oxo-4-[(2S)-3,3,3-trifluoro-2-hydroxypropyl]-4,5-dihydro-1H-1,2,4-triazol-1-yl}methyl)-N-[(1-hydroxycyclopropyl)methyl]-1-[3-(trifluoromethyl)pyridin-2-yl]-1H1,2,4-triazole-5-carboxamide], on human V1a receptor, the half-maximal inhibitory concentration (IC50) turned out to be 1.54 nM and the “ratio IC50 hV2/hV1a” value was found to be 47.2. Also, at human V2 receptor, the IC50 is 72.5 nM.
